Experimental data as given in PubChem BioAssay AID1963423 (Molecular Pharmacology Branch, DTP, NCI, 2024).
One block for each compound: values may come before it.

Tested on: 439559-082-T-J2-PDC complex spheroid growth
Experiment: Anticancer human tumor 439559-082-T-J2-PDC patient-derived colon adenocarcinoma cell line growth inhibition [Asc]
Conditions: for IC50: curve of first compound; for viability, T/C: stronger effect = lower value
Method: Multicellular complex tumor spheroid response to apoptosis pathway targeting inhibitors Alrizomadlin, Pelcitoclax, and Dasminapant in combination with a variety of drugs and investigational agents in selected tumor cell lines
The MDM2 inhibitor alrizomadlin, the Bcl-2/Bcl-xL inhibitor pelcitoclax, and the IAPs inhibitor dasminapant were evaluated both individually and in combination with standard of care and investigational anticancer small molecules within a complex spheroid model of solid tumors. . Complex spheroids include a stromal component modeled by human endothelial cells (HUVEC) and fibroblasts modeled by human mesenchymal stem cells (MSCs). The concentration ranges selected for each drug and investigational agent were based upon clinically achievable concentrations if the clinical Cmax of the agent was known.
Compounds. The drugs and investigational agents: alrizomadlin (APG-115; NSC831270), pelcitoclax (APG-1252; NSC835773), dasminapant (APG-1387;NSC834197), TAK-243 (NSC785004), copanlisib (NSC809693), olaparib (NSC753686), talazoparib (NSC767125), cobimetinib (NSC 768068), eltanexor (KPT-8602, NSC 794443), abemaciclib (NSC 768073), sotorasib (NSC818433), adagrasib (NSC 831453), MRTX-1133 (NSC 836407), Iadademestat (ORY1001, NSC 806812), and RMC-4630 (NSC839698), were obtained from the NCI Developmental Therapeutics Program Chemical Repository. The FDA-approved anticancer drug set is available from the Developmental Therapeutics Program at https://dtp.cancer.gov/organization/dscb/obtaining/available plates.htm. […] The stock solutions were prepared in dimethyl sulfoxide (DMSO, Sigma-Aldrich, St. Louis, MO, cat. D2650) at 800-fold the tested concentration and stored at -70 degrees C prior to their use. All drugs and investigational agents were tested over a range starting from a high concentration at or near the clinical Cmax and decreasing in half-log increments. If the clinical Cmax for an agent had not been determined, the highest concentration tested was 10 microM.
The patient-derived cancer (PDC) cell lines include five colon adenocarcinomas: 186277-243-T-J2-PDC, 616215-338-R-J1-PDC, 439559-082-T-J2-PDC, 463943-066-T-J2-PDC, and 519858-162-T-J1-PDC; three pancreatic carcinomas: 323965-272-R-J2-PDC, 521955-158-R6-J3-PDC, and 521955-158-R2-J5-PDC; two uterine sarcomas: 327498-152-R-J2-PDC and 993429-296-R-J1-PDC; two rhabdomyosarcomas: 755483-174-R-J1-PDC and 772245-204-R-J1-PDC; two soft tissue sarcomas: 126254-015-R-J1-PDC and 494315-158-R-J1-PDC; two malignant fibrous histiocytomas: 317291-083-R-J1-PDC and 596521-263-R-J1-PDC; two breast carcinomas: 171881-019-R-J1-PDC and 885512-296-R-J2-PDC; and one ovarian carcinoma: 6556581-035-R-J-PDC were obtained from the NCI PDMR, (https://pdmr.cancer.gov). The established cell lines HSSY-2 synovial sarcoma (RRID:CVCL 8719), SYO-1 synovial sarcoma (RRID:CVCL_7146), MPNST malignant peripheral neural sheath tumor were obtained from the Sloan Kettering Institute. The following established cell lines were purchased from the American Type Culture Collection (ATCC, Manassas, VA), Sor the received from the NCI repository:, PANC-1 pancreatic carcinoma (CRL-1469, RRID:CVCL_0480), OVCAR-5 ovarian carcinoma (RRID:CVCL_1628), OVCAR-8 ovarian carcinoma (RRID:CVCL_1629), , MCF-7 breast carcinoma (CRL-12584, RRID:CVCL_0031), MDA-MB-231 breast carcinoma (CRL-12532, RRID:CVCL_0062), NCI-H1876 small cell lung carcinoma (CRL-5902, RRID:CVCL_1503), NCI-H510A small cell lung carcinoma (HTB-184, RRID:CVCL_1565), NCI-H1417 (CRL-5869, RRID:CVCL_1469), and NCI-H196 small cell lung carcinoma (CRL-5823, RRID:CVCL_1509). Dr. Peter Houghton (Greehey Children's Cancer Research Institute, University of Texas Health Science Center, San Antonio, TX) provided Rh-18 rhabdomyosarcoma (RRID:CVCL_1659). Pooled donor human umbilical vein endothelial cells (HUVEC, Lonza, cat. CC-2519) and human mesenchymal stem cells (hMSC, Lonza, cat. PT-2501) were purchased from Lonza (Walkersville, MD).
Cell Culture. […]

[1] = second compound 0.03 µM, first compound 0.00316 µM
[2] = second compound 0.03 µM, first compound 0.01 µM
[3] = second compound 0.03 µM, first compound 0.0316 µM
[4] = second compound 0.03 µM, first compound 0.1 µM
[5] = second compound 0.0949 µM, first compound 0.00316 µM
[6] = second compound 0.0949 µM, first compound 0.01 µM
[7] = second compound 0.0949 µM, first compound 0.0316 µM
[8] = second compound 0.0949 µM, first compound 0.1 µM
[9] = second compound 0.3 µM, first compound 0.00316 µM
[10] = second compound 0.3 µM, first compound 0.01 µM
[11] = second compound 0.3 µM, first compound 0.0316 µM
[12] = second compound 0.3 µM, first compound 0.1 µM
[13] = second compound 0.949 µM, first compound 0.00316 µM
[14] = second compound 0.949 µM, first compound 0.01 µM
[15] = second compound 0.949 µM, first compound 0.0316 µM
[16] = second compound 0.949 µM, first compound 0.1 µM
[17] = second compound 3 µM, first compound 0.00316 µM
[18] = second compound 3 µM, first compound 0.01 µM
[19] = second compound 3 µM, first compound 0.0316 µM
[20] = second compound 3 µM, first compound 0.1 µM
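Note: spheroids exposed to agents for 7 days starting day 3 after seeding.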
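Throughout, for viability, T/C: percent of DMSO vehicle control viability with 100% = vehicle.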

IC50 (second compound 0.03 µM): > 1000 nM
IC50 (second compound 0.0949 µM): > 1000 nM
IC50 (second compound 0.3 µM): > 1000 nM
IC50 (second compound 0.949 µM): > 1000 nM
IC50 (second compound 3 µM): > 1000 nM
Structure (SMILES): CCN1CCN(Cc2ccc(Nc3ncc(F)c(-c4cc(F)c5nc(C)n(C(C)C)c5c4)n3)nc2)CC1 + CCN1C(C(=O)NC23CCC(C(=O)O)(CC2)CC3)C(c2cccc(Cl)c2F)C2(C(=O)Nc3cc(Cl)ccc32)C12CCCCC2
viability, T/C [1]: 107%
viability, T/C [2]: 105%
viability, T/C [3]: 94.4%
viability, T/C [4]: 88.9%
viability, T/C (second compound 0.03 µM, first compound 0.316 µM): 85.7%
viability, T/C (second compound 0.03 µM, first compound 1 µM): 83%
viability, T/C [5]: 104%
viability, T/C [6]: 107%
viability, T/C [7]: 98.8%
viability, T/C [8]: 80.7%
viability, T/C (second compound 0.0949 µM, first compound 0.316 µM): 94%
viability, T/C (second compound 0.0949 µM, first compound 1 µM): 84.8%
viability, T/C [9]: 99.1%
viability, T/C [10]: 106%
viability, T/C [11]: 115%
viability, T/C [12]: 87.2%
viability, T/C (second compound 0.3 µM, first compound 0.316 µM): 86.8%
viability, T/C (second compound 0.3 µM, first compound 1 µM): 85%
viability, T/C [13]: 99.2%
viability, T/C [14]: 102%
viability, T/C [15]: 114%
viability, T/C [16]: 93.5%
viability, T/C (second compound 0.949 µM, first compound 0.316 µM): 96.7%
viability, T/C (second compound 0.949 µM, first compound 1 µM): 90%
viability, T/C [17]: 87.5%
viability, T/C [18]: 94%
viability, T/C [19]: 105%
viability, T/C [20]: 80.7%
viability, T/C (second compound 3 µM, first compound 0.316 µM): 87%
viability, T/C (second compound 3 µM, first compound 1 µM): 84.7%

IC50 (second compound 0.03 µM): > 300 nM
IC50 (second compound 0.0949 µM): > 300 nM
IC50 (second compound 0.3 µM): > 300 nM
IC50 (second compound 0.949 µM): > 300 nM
IC50 (second compound 3 µM): > 300 nM
Structure (SMILES): NC(=O)C(=Cn1cnc(-c2cc(C(F)(F)F)cc(C(F)(F)F)c2)n1)c1cncnc1 + CCN1C(C(=O)NC23CCC(C(=O)O)(CC2)CC3)C(c2cccc(Cl)c2F)C2(C(=O)Nc3cc(Cl)ccc32)C12CCCCC2
viability, T/C (second compound 0.03 µM, first compound 0.000949 µM): 96.7%
viability, T/C (second compound 0.03 µM, first compound 0.003 µM): 103%
viability, T/C (second compound 0.03 µM, first compound 0.00949 µM): 103%
viability, T/C (second compound 0.03 µM, first compound 0.03 µM): 90.9%
viability, T/C (second compound 0.03 µM, first compound 0.0949 µM): 95.2%
viability, T/C (second compound 0.03 µM, first compound 0.3 µM): 81.9%
viability, T/C (second compound 0.0949 µM, first compound 0.000949 µM): 98.5%
viability, T/C (second compound 0.0949 µM, first compound 0.003 µM): 113%
viability, T/C (second compound 0.0949 µM, first compound 0.00949 µM): 107%
viability, T/C (second compound 0.0949 µM, first compound 0.03 µM): 83.2%
viability, T/C (second compound 0.0949 µM, first compound 0.0949 µM): 89.4%
viability, T/C (second compound 0.0949 µM, first compound 0.3 µM): 83.3%
viability, T/C (second compound 0.3 µM, first compound 0.000949 µM): 106%
viability, T/C (second compound 0.3 µM, first compound 0.003 µM): 102%
viability, T/C (second compound 0.3 µM, first compound 0.00949 µM): 105%
viability, T/C (second compound 0.3 µM, first compound 0.03 µM): 88.2%
viability, T/C (second compound 0.3 µM, first compound 0.0949 µM): 93.2%
viability, T/C (second compound 0.3 µM, first compound 0.3 µM): 80.8%
viability, T/C (second compound 0.949 µM, first compound 0.000949 µM): 105%
viability, T/C (second compound 0.949 µM, first compound 0.003 µM): 104%
viability, T/C (second compound 0.949 µM, first compound 0.00949 µM): 110%
viability, T/C (second compound 0.949 µM, first compound 0.03 µM): 90.3%
viability, T/C (second compound 0.949 µM, first compound 0.0949 µM): 88.6%
viability, T/C (second compound 0.949 µM, first compound 0.3 µM): 86.8%
viability, T/C (second compound 3 µM, first compound 0.000949 µM): 87.3%
viability, T/C (second compound 3 µM, first compound 0.003 µM): 93.2%
viability, T/C (second compound 3 µM, first compound 0.00949 µM): 96.6%
viability, T/C (second compound 3 µM, first compound 0.03 µM): 87.5%
viability, T/C (second compound 3 µM, first compound 0.0949 µM): 75%
viability, T/C (second compound 3 µM, first compound 0.3 µM): 67.7%

IC50 (second compound 0.03 µM): > 100 nM
IC50 (second compound 0.0949 µM): > 100 nM
IC50 (second compound 0.3 µM): > 100 nM
IC50 (second compound 0.949 µM): > 100 nM
IC50 (second compound 3 µM): > 100 nM
Structure (SMILES): NC1CCC(NC2CC2c2ccccc2)CC1 (stereo not given) + CCN1C(C(=O)NC23CCC(C(=O)O)(CC2)CC3)C(c2cccc(Cl)c2F)C2(C(=O)Nc3cc(Cl)ccc32)C12CCCCC2
viability, T/C (second compound 0.03 µM, first compound 0.000316 µM): 95.4%
viability, T/C (second compound 0.03 µM, first compound 0.001 µM): 107%
viability, T/C [1]: 119%
viability, T/C [2]: 95.5%
viability, T/C [3]: 102%
viability, T/C [4]: 99.7%
viability, T/C (second compound 0.0949 µM, first compound 0.000316 µM): 105%
viability, T/C (second compound 0.0949 µM, first compound 0.001 µM): 111%
viability, T/C [5]: 123%
viability, T/C [6]: 100%
viability, T/C [7]: 98.8%
viability, T/C [8]: 107%
viability, T/C (second compound 0.3 µM, first compound 0.000316 µM): 97.6%
viability, T/C (second compound 0.3 µM, first compound 0.001 µM): 111%
viability, T/C [9]: 110%
viability, T/C [10]: 98.4%
viability, T/C [11]: 110%
viability, T/C [12]: 111%
viability, T/C (second compound 0.949 µM, first compound 0.000316 µM): 111%
viability, T/C (second compound 0.949 µM, first compound 0.001 µM): 124%
viability, T/C [13]: 121%
viability, T/C [14]: 100%
viability, T/C [15]: 107%
viability, T/C [16]: 114%
viability, T/C (second compound 3 µM, first compound 0.000316 µM): 96.8%
viability, T/C (second compound 3 µM, first compound 0.001 µM): 98.5%
viability, T/C [17]: 103%
viability, T/C [18]: 98.6%
viability, T/C [19]: 94.1%
viability, T/C [20]: 107%
